Assay results reported in the NIST ThermoML archive (doi:10.1021/je2011314).
± gives the expanded uncertainty stated by the source. Each block holds one molecule with its values, some of them ahead of it.

Legend:
[1] = 298.15 K; 101.33 kPa; Liquid; Vibrating tube method
[2] = xn = mol fraction of the nth substance listed; conditions: 298.15 K, 101 kPa, Liquid, Vibrating tube method

Compound: CC(C)OC(C)C [diisopropyl ether] + CC(C)CC(C)(C)C
mass density ([2]; x2 = 0.3056): 706.86 ± 0.22 kg/m3
mass density ([2]; x2 = 0.3066): 706.7 ± 0.22 kg/m3
mass density ([2]; x2 = 0.5009): 700.59 ± 0.21 kg/m3
mass density ([2]; x2 = 0.5027): 700.42 ± 0.21 kg/m3
mass density ([2]; x2 = 0.5046): 700.41 ± 0.21 kg/m3
mass density ([2]; x2 = 0.7004): 694.83 ± 0.19 kg/m3
mass density ([2]; x2 = 0.7009): 694.86 ± 0.19 kg/m3
mass density ([2]; x2 = 0.7025): 694.86 ± 0.19 kg/m3

Compound: COC(C)(C)C [2-methoxy-2-methylpropane] + CC(C)CC(C)(C)C
mass density ([2]; x2 = 0.2997): 716 ± 0.17 kg/m3
mass density ([2]; x2 = 0.3004): 715.84 ± 0.17 kg/m3
mass density ([2]; x2 = 0.3012): 715.86 ± 0.17 kg/m3
mass density ([2]; x2 = 0.5018): 705.83 ± 0.18 kg/m3
mass density ([2]; x2 = 0.5019): 705.9 ± 0.18 kg/m3
mass density ([2]; x2 = 0.5037): 705.72 ± 0.18 kg/m3
mass density ([2]; x2 = 0.6707): 698.67 ± 0.18 kg/m3
mass density ([2]; x2 = 0.7056): 697.4 ± 0.18 kg/m3
mass density ([2]; x2 = 0.7134): 697.17 ± 0.18 kg/m3

Compound: CCO [ethanol]
mass density [1]: 785.31 ± 0.62 kg/m3

Compound: CC(C)OC(C)C [diisopropyl ether]
mass density [1]: 718.24 ± 0.64 kg/m3

Continued, values first:

mass density [1]: 799.7 ± 0.62 kg/m3
Compound: CCCO [propan-1-ol]

mass density [1]: 786.56 ± 0.61 kg/m3
Compound: CO [methanol]

mass density [1]: 735.21 ± 0.62 kg/m3
Compound: COC(C)(C)C [2-methoxy-2-methylpropane]

mass density [1]: 687.62 ± 0.62 kg/m3
Compound: CC(C)CC(C)(C)C [2,2,4-trimethylpentane]
